Measured values published in article PMC12092823 (Scientific Reports, 2025).
One block for each compound: values may come before it.

Key:
α-glucosidase [1] = experiment: In vitro α-glucosidase inhibition assay; type: biochemical, yeast; conditions: for anti-α-glucosidase activity in words: in comparison to acarbose or compound 14b; for folds more active than acarbose against α-glucosidase: versus acarbose
α-glucosidase [2] = experiment: Kinetic study; type: biochemical, yeast; conditions: Lineweaver–Burk plots

SMILES: COc1ccc(-c2nc(C(=O)NCc3cn(CC(=O)Nc4cccc(Cl)c4)nn3)cc3c2[nH]c2ccccc23)cc1 [Compound 14i, N-((1-(2-((3-chlorophenyl)amino)-2-oxoethyl)-1 H-1,2,3-triazol-4-yl)methyl)-1-(4-methoxyphenyl)-9 H-pyrido[3,4-b]indole-3-carboxamide]
- anti-α-glucosidase activity in words (α-glucosidase [1]): significant inhibitor

SMILES: O=C(Cn1cc(CNC(=O)c2cc3c([nH]c4ccccc43)c(-c3ccc(Cl)cc3)n2)nn1)Nc1ccccc1F [14 m, 1-(4-chlorophenyl)-N-((1-(2-((2-fluorophenyl)amino)-2-oxoethyl)-1 H-1,2,3-triazol-4-yl)methyl)-9 H-pyrido[3,4-b]indole-3-carboxamide]
- folds more active than acarbose against α-glucosidase (α-glucosidase [1]): around 5 folds

SMILES: O=C(Cn1cc(CNC(=O)c2cc3c([nH]c4ccccc43)c(-c3ccc(Cl)cc3)n2)nn1)Nc1cccc(Cl)c1 [Compound 14n, 1-(4-chlorophenyl)-N-((1-(2-((3-chlorophenyl)amino)-2-oxoethyl)-1 H-1,2,3-triazol-4-yl)methyl)-9 H-pyrido[3,4-b]indole-3-carboxamide]
- anti-α-glucosidase activity in words (α-glucosidase [1]): good

SMILES: Cc1cc([N+](=O)[O-])ccc1NC(=O)Cn1cc(CNC(=O)c2cc3c([nH]c4ccccc43)c(-c3ccc(Cl)cc3)n2)nn1 [14 L, 1-(4-chlorophenyl)-N-((1-(2-((2-methyl-4-nitrophenyl)amino)-2-oxoethyl)-1 H-1,2,3-triazol-4-yl)methyl)-9 H-pyrido[3,4-b]indole-3-carboxamide]
- anti-α-glucosidase activity in words (α-glucosidase [1]): good

Further lines, results first:

- anti-α-glucosidase activity in words (α-glucosidase [1]): moderate
SMILES: COc1ccc(NC(=O)Cn2cc(CNC(=O)c3cc4c([nH]c5ccccc54)c(-c4ccccc4)n3)nn2)c([N+](=O)[O-])c1 [Compound 14e, N-((1-(2-((4-methoxy-2-nitrophenyl)amino)-2-oxoethyl)-1 H-1,2,3-triazol-4-yl)methyl)-1-phenyl-9 H-pyrido[3,4-b]indole-3-carboxamide]

- inhibitory activity diminished relative to compound 14 L (α-glucosidase [1]; versus compound 14 L): 3 folds
SMILES: Cc1ccccc1NC(=O)Cn1cc(CNC(=O)c2cc3c([nH]c4ccccc43)c(-c3ccc(Cl)cc3)n2)nn1 [Compound 14k, 1-(4-chlorophenyl)-N-((1-(2-oxo-2-(o-tolylamino)ethyl)-1 H-1,2,3-triazol-4-yl)methyl)-9 H-pyrido[3,4-b]indole-3-carboxamide]

- decrease of anti-α-glucosidase activity relative to compound 14b (α-glucosidase [1]; versus compound 14b): 10 folds
SMILES: Cc1cc([N+](=O)[O-])ccc1NC(=O)Cn1cc(CNC(=O)c2cc3c([nH]c4ccccc43)c(-c3ccccc3)n2)nn1 [Compound 14c, N-((1-(2-((2-methyl-4-nitrophenyl)amino)-2-oxoethyl)-1 H-1,2,3-triazol-4-yl)methyl)-1-phenyl-9 H-pyrido[3,4-b]indole-3-carboxamide]

- effect of increasing inhibitor concentration on Km and Vmax (α-glucosidase [2]): decrease in Km and Vmax
- type of α-glucosidase inhibition (α-glucosidase [2]): uncompetitive
- anti-α-glucosidase activity in words (α-glucosidase [1]): significant
SMILES: Cc1ccccc1NC(=O)Cn1cc(CNC(=O)c2cc3c([nH]c4ccccc43)c(-c3ccccc3)n2)nn1 [Compound 14b, N-((1-(2-oxo-2-(o-tolylamino)ethyl)-1 H-1,2,3-triazol-4-yl)methyl)-1-phenyl-9 H-pyrido[3,4-b]indole-3-carboxamide]

- folds more active than acarbose against α-glucosidase (α-glucosidase [1]): around 5 folds
SMILES: O=C(Cn1cc(CNC(=O)c2cc3c([nH]c4ccccc43)c(-c3ccc(Cl)cc3)n2)nn1)Nc1ccccc1 [Compound 14j, 1-(4-chlorophenyl)-N-((1-(2-oxo-2-(phenylamino)ethyl)-1 H-1,2,3-triazol-4-yl)methyl)-9 H-pyrido[3,4-b]indole-3-carboxamide]
